Key:
MASP-2 CCP2-SP = MASP-2 CCP2-SP (Homo sapiens (Human), UniProt O00187); assay: MASP-2 co-crystallization, X-ray crystallography and structure analysis (H-bonds, van der Waals contacts); design: van der Waals contact distance, MASP-2 HIS 483 atom CD2 / van der Waals contact distance, MASP-2 HIS 483 atom NE2 / van der Waals contact distance, SER 654 C to compound atom / van der Waals contact distance, SER 654 O to compound atom / van der Waals contact distance, TRP 655 C to compound atom / van der Waals contact distance, MASP-2 GLY 528 atom CA / van der Waals contact distance TRP 655 atom CZ3 / van der Waals contact distance TRP 655 atom N / van der Waals contact distance TRP 655 atom CE3 / van der Waals contact distance GLY 656 atom C / van der Waals contact distance GLY 656 atom CA / van der Waals contact distance GLY 656 atom O / van der Waals contact distance, MASP-2 TYR 607 atom CD1 / van der Waals contact distance, MASP-2 PRO 606 atom O / d(C3,CA1) / d(CA1,N1)2 / d(H4,O1) / d(H4,O2) / d(O1,O2) / d(CA1,O2) / d(CA6,O1) / d(CA6,O2) / d(CA1,C5) / d(O2,H3) / d(N2,C2) / d(CA5,N2) / d(N2,C4) / d(N2,C6) / d(N2,CA3) / d(N2,O3) / d(O4,H2): unit not given beside the values;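 as to Ligand-pharmacophore element distance, pharmacophore element C2: distance from averaged pharmacophore element to bound ligand; missing value means element absent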;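 as to Ligand-pharmacophore element distance, pharmacophore element C3: distance from averaged pharmacophore element to bound ligand; missing value means element absent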;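 as to Ligand-pharmacophore element distance, pharmacophore element C4: distance from averaged pharmacophore element to bound ligand; missing value means element absent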;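 as to Ligand-pharmacophore element distance, pharmacophore element C5: distance from averaged pharmacophore element to bound ligand; missing value means element absent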
Procedure, shortened: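 Soaked crystals of recombinant CCP2-SP (E. coli) yield the structures, phased by molecular replacement on 1Q3X pieces. Hydrophobic or nonbonded contacts can also cover atom pairs that are potential hydrogen bonds.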

human α-thrombin = human α-thrombin (Homo sapiens (Human), UniProt P00734); assay: Enzymatic Assay for Thrombin (Boc-VPR-AMC); format: biochemical
MASP-2 (CCP1-CCP2-SP) = MASP-2 (CCP1-CCP2-SP) (Homo sapiens (Human), UniProt O00187); assay: Enzymatic Assay for MASP-2 (fluorogenic substrate); format: biochemical
[1] = Table A5-1 pharmacophore: distance between elements, S2/S1 region
[2] = Table A5-2 pharmacophore distance, S3/S4 region
[3] = Table A7-1, between pharmacophore elements of the bound compound
[4] = Table A8-6, nearest protein atom in cell to the left

MASP-2 CCP2-SP, sequence (O00187 445-686): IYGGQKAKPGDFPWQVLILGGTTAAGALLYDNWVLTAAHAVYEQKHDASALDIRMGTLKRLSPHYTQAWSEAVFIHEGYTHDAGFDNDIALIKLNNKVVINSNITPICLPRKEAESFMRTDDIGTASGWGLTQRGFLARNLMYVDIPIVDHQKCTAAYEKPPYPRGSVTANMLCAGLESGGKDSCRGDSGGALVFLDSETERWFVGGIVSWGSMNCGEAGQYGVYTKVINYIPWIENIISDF
MASP-2 CCP2-SP, sequence (O00187 364-432 partner): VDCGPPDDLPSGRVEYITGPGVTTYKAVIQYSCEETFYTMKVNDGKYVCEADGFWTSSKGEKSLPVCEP
MASP-2 (CCP1-CCP2-SP), sequence (O00187 445-686): as the sequence (O00187 445-686) above

C[C@H](NC(=O)[C@H](N)CCc1cccc(Cl)c1)C(=O)NCc1ccc(C(=N)N)cc1 [compound 1081]
H-bond distance to MASP-2 GLY 656 atom O (MASP-2 CCP2-SP; Table A1 (H-Bonds), GLY 656 O): 2.92
H-bond distance to MASP-2 SER 628 atom O (MASP-2 CCP2-SP; Table A1 (H-Bonds), SER 628 O): 2.86
H-bond distance to MASP-2 SER 654 atom O (MASP-2 CCP2-SP; Table A1 (H-Bonds), SER 654 O): 2.81
H-bond distance to MASP-2 SER 657 atom O (MASP-2 CCP2-SP; Table A1 (H-Bonds), SER 657 O): 2.69
van der Waals contact distance, MASP-2 HIS 483 atom CD2 (MASP-2 CCP2-SP; Table A2-1): 3.74
van der Waals contact distance, MASP-2 PHE 529 atom CD1 (MASP-2 CCP2-SP; Table A2-3): 3.38
van der Waals contact distance, MASP-2 amino acid atom to compound atom (MASP-2 CCP2-SP; Table A2-7 continued: CYS 629 (CA)): 3.8
van der Waals contact distance, MASP-2 amino acid atom to compound atom (MASP-2 CCP2-SP; Table A2-9, ARG 630, AA atoms CG, CZ): 3.76
van der Waals contact distance, MASP-2 amino acid atom to compound atom (MASP-2 CCP2-SP; Table A2-9 second part, ARG 630, AA atoms N, NE, NH1): 3.81
van der Waals contact distance, VAL 653 CG1 to compound atom (MASP-2 CCP2-SP; Table A2-11): 3.84
van der Waals contact distance GLY 656 atom C (MASP-2 CCP2-SP; Table A2-13, MASP-2 GLY 656 C): 3.27
van der Waals contact distance TRP 655 atom N (MASP-2 CCP2-SP; Table A2-13, MASP-2 TRP 655 N): 3.83
van der Waals contact distance TRP 655 atom O (MASP-2 CCP2-SP; Table A2-13, MASP-2 TRP 655 O): 3.8
van der Waals contact distance GLY 656 atom O (MASP-2 CCP2-SP; Table A2-14, MASP-2 GLY 656 O): 3.81
van der Waals contact distance SER 657 atom C (MASP-2 CCP2-SP; Table A2-14, MASP-2 SER 657 C, columns c12-c13 (inferred)): 3.62
Ligand-pharmacophore element distance, pharmacophore element C2 (MASP-2 CCP2-SP; Table A4-1, element C2): 0
Ligand-pharmacophore element distance, pharmacophore element C3 (MASP-2 CCP2-SP; Table A4-1, element C3): 0
Ligand-pharmacophore element distance, pharmacophore element C4 (MASP-2 CCP2-SP; Table A4-1, element C4): 1.99
Ligand-pharmacophore element distance, pharmacophore element C5 (MASP-2 CCP2-SP; Table A4-1, element C5): 0
Ligand-pharmacophore element distance, pharmacophore element C6 (MASP-2 CCP2-SP; Table A4-1, element C6): 0
Ligand-pharmacophore element distance, pharmacophore element C7 (MASP-2 CCP2-SP; Table A4-1, element C7): 0
Ligand-pharmacophore element distance, pharmacophore element CA1 (MASP-2 CCP2-SP; Table A4-1, element CA1): 0.48
Ligand-pharmacophore element distance, pharmacophore element CA2 (MASP-2 CCP2-SP; Table A4-1, element CA2): 0.76
Ligand-pharmacophore element distance, pharmacophore element CA3 (MASP-2 CCP2-SP; Table A4-1, element CA3): 0
Ligand-pharmacophore element distance, pharmacophore element CA4 (MASP-2 CCP2-SP; Table A4-1, element CA4): 0
Ligand-pharmacophore element distance, pharmacophore element CA5 (MASP-2 CCP2-SP; Table A4-1, element CA5): 0
Ligand-pharmacophore element distance, pharmacophore element CA6 (MASP-2 CCP2-SP; Table A4-1, element CA6): 0
d(CA1,N1) (MASP-2 CCP2-SP; [1]): 3.62
d(CA1,O1) (MASP-2 CCP2-SP; [1]): 4.57
d(CA1,O2) (MASP-2 CCP2-SP; [1]): 4.27
d(H4,O1) (MASP-2 CCP2-SP; [1]): 5.10
d(H4,O2) (MASP-2 CCP2-SP; [1]): 4.46
d(O1,O2) (MASP-2 CCP2-SP; [1]): 3.45
d(N2,C4) (MASP-2 CCP2-SP; [2]): 7.56
d(N2,C4)4 (MASP-2 CCP2-SP; [2]): 7.56
d(N2,CA2) (MASP-2 CCP2-SP; [2]): 6.05
d(O2,H3) (MASP-2 CCP2-SP; [2]): 5.78
d(O2,N2) (MASP-2 CCP2-SP; [2]): 2.76
a(CA1, O1, O2) (MASP-2 CCP2-SP; Table A6-1 pharmacophore angle): 108.25
a(O1, O2, H4) (MASP-2 CCP2-SP; Table A6-1 pharmacophore angle): 138.44
A(N1, CA1, O1) a) (MASP-2 CCP2-SP; Table A6-1 pharmacophore angle, all compounds with protonatable center N1 except Methyl-amino-pyridine): 163.55
a(O1, O2, H3) (MASP-2 CCP2-SP; Table A6-2 pharmacophore angle): 153.00
a(O1, O2, N2) (MASP-2 CCP2-SP; Table A6-2 pharmacophore angle): 139.53
a(O2, N2, C4) (MASP-2 CCP2-SP; Table A6-2 pharmacophore angle): 161.57
a(O2, N2, C4) 2 (MASP-2 CCP2-SP; Table A6-2 pharmacophore angle): 119.80
a(O2, N2, CA2) (MASP-2 CCP2-SP; Table A6-2 pharmacophore angle): 153.98
Pharmacophore torsion angle a(H4, O1, O2, H3) (MASP-2 CCP2-SP; [3]): 36.36
Pharmacophore torsion angle a(H4, O1, O2, N2) (MASP-2 CCP2-SP; [3]): 121.47
Pharmacophore torsion angle a(N1, CA1, O2, H4) (MASP-2 CCP2-SP; [3]): −125.05
Pharmacophore torsion angle a(O1, H4, O2, CA1) (MASP-2 CCP2-SP; [3]): −62.03
Pharmacophore torsion angle a(O1, O2, N2, CA2) (MASP-2 CCP2-SP; Table A7-2, between pharmacophore elements of the bound compound): 142.86
Pharmacophore protein distance to MET_658 (first MET_658 column) (MASP-2 CCP2-SP; Table A8-6, 6th residue column, nearest protein atom in cell to the left): 3.11
Pharmacophore protein distance to MET_658 (second MET_658 column) (MASP-2 CCP2-SP; Table A8-6, 9th residue column, nearest protein atom in cell to the left): 3.70
Pharmacophore protein distance to GLY_528 (MASP-2 CCP2-SP; [4]): 3.22
Pharmacophore protein distance to PHE_529 (MASP-2 CCP2-SP; [4]): 3.23
Pharmacophore protein distance to PRO_608 (MASP-2 CCP2-SP; [4]): 4.72
Pharmacophore protein distance to SER_611 (MASP-2 CCP2-SP; [4]): 2.66
Pharmacophore protein distance to TRP_655 (MASP-2 CCP2-SP; Table A8-6, pharmacophore elements C6, CA3, O3, H1, nearest protein atom in cell to the left): 3.69
Ki (human α-thrombin): < 0.5 µM
Ki (MASP-2 (CCP1-CCP2-SP)): < 0.5 µM

Reference: patent US12195427B2, “MASP-2 inhibitors and methods of use” (priority 2018, dated 2025)
